# Test results from patent publication US20260345609A1, “METHODS FOR PROMOTING PERSISTENCE OF CELL THERAPY” (Legend Biotech Ireland Limited, priority 2022, published 2026).
# Tests used:
# [1] = tested on: human gastric cancer cells NUGC4; assay: In vivo efficacy in subcutaneous NUGC4 gastric cancer xenograft model, tumor volume; set-up: species or system NCG immunodeficient mice; human tumor cells; details: G5, 22.635 mg/kg MTX alone i.p., day5 to day35, p>0.05
# From the text: Refer to Example 1, the fusion gene sequence of SIV Nef M116-IRES-CD8α SP Claudin18.2 VHH-CD8α Hinge-CD8α TM-4-1BB-ITAM010 (SEQ ID NO: 5) was cloned into the expression plasmid pLVX-hEF1α to form the M1645 expression plasmid. The anti-Claudin18.2 VHH, as well as the antigen binding domain of CAR, have been disclosed in PCT/CN2020/139143. TGB23-6-IRES-DHFR L22F/F31S (SEQ ID NO: 7) was cloned into the expression plasmid pLVX-hEF1α to form the M1647 expression plasmid. The fusion protein of TGB23-6 is a signal converter, and has been described in PCT/CN2022/087016. To obtain LUCAR-GC cells, M1645 and M1647 were transduced into T cells. The production of Virus vector and the transduction of primary T were completed with reference to Example 1.
# Severely immunodeficient NCG mice were used for in vivo efficacy evaluation. On day −14 before treatment, NCG immunodeficient mice were inoculated subcutaneously with tumor cells (3×10^6 human gastric cancer cells NUGC4/mouse). […] During the experiment, animal status, survival, tumor volume and body weight were measured twice a week. […] The proportion of transplanted cells (hCD45+%/live) in the peripheral blood of mice was counted.
# LUCAR-20SD cells = assay: In vitro mixed lymphoid (MLR) model with LUCAR-20SD cells, UnT and Raji cells: graft LUCAR-20SD cells; format: cell-based, human; details: 0.05 μM, 1 μM, 2 μM MTX
# Protocol: To evaluate the ability of LUCAR-20SD cells to tolerate allogeneic T cell rejection, an in vitro mixed lymphoid (MLR) model was established.
# Using the T cells from a random healthy donor (B donor), LUCAR-20SD cells were prepared following the method in Example 1, as the graft cells. Un-transduced T cells (UnT) from another random healthy donor (Adonor) were also prepared, as the host cells.
# The cell density of CD20 positive cells (lymphoma cell lines Raji, ATCC, CCL-86) was adjusted to 1×10^6 cells/mL. Raji cells were treated with 20 μg/mL mitomycin at 37° C. for 3 h, washed three times with 10 mL DPBS, and were resuspended in the culture medium. 20×10^6 untransduced T cells (UnT, T cell donor A), 1×10^6 LUCAR-20SD cells (T cell donor B), and 5×10^6 treated lymphoma cells Raji were mixed and cultured in the medium. The cell mixture was divided into 4 groups, and 0 μM MTX, 0.05 μM MTX, 1 μM MTX, or 2 μM MTX was added, respectively. […] According to the formula: fold change of cell number (UnT)=[cell number counted by AOPI×(CAR-CD5+%)]/20, fold change of cell number (LUCAR-20SD cells)=[cell number counted by AOPI×(CAR+CD5+%)]/1, the cell proliferation curves of UnT and LUCAR-20SD cells were plotted.
# [2] = tested on: host PBMC cells (HLA-A2+); assay: Effect of combination of fludarabine, cyclophosphamide and MTX on host immune cells (HLA-A2+) in peripheral blood; format: in vivo, NCG mice; human host cells; details: day 13
# From the text: pLVX-Puro vector purchased from Clontech was subjected to the digestion reaction of ClaI and EcoRI restriction enzymes. The CMV promoter was replaced with the human EF1α promoter (GenBank: J04617.1) to obtain the pLVX-hEF1α vector. The fusion gene sequence of SIV Nef_M116-P2A-DHFR L22F/F31S-IRES-CD8α SP-anti-BCMA antibody-CD8α Hinge-CD8αTM-4-1BB-ITAM010, hereinafter referred to as “LUCAR-BCMA” (SEQ ID NO: 6) was cloned into the expression plasmid pLVX-hEF1α to form the LUCAR-BCMA expression plasmid named as M1588. The anti-BCMA antibody contained herein has been disclosed in PCT/CN2020/136570. With reference to the virus vector production and primary T transduction in Example 1, LUCAR-BCMA cells were prepared.
# Severely immunodeficient NCG mice were used for in vivo efficacy evaluation. The specific embodiment is as follows: at day-5.5 mice were intravenously inoculated with 20×10^6 PBMC cells (HLA-A2+) to construct host immune cells, and at day0 the mice were intravenously inoculated with 3×10^6 LUCAR-BCMA cells (HLA-A2−) as transplanted cells. The modeled mice were then treated with the following different combination of fludarabine, cyclophosphamide, and MTX to evaluate the inhibitory effect of the combination regimen on the host's immune system. “/” in Table 2 means no drug was administrated. The dose of fludarabine in each experimental group was 0.1623 mg/mice, the dose of cyclophosphamide was 1.623 mg/mice and the dose of MTX was 15.15 mg/kg (G3 and G4) or 75.45 mg/kg (G5 and G6). At day 13, the end point of the experiment, the peripheral blood white blood cells (WBC) of mice were measured. The peripheral blood cells of mice were resuspended in DPBS, and then 1 μL of FITC anti human CD45 (Biolegend, 304038) and 1 μL of PE anti human HLA-A2 (Biolegend, 343306) were added into the cell resuspension and incubated at 4° C. for 30 min. […] The proliferation of host PBMC cells in the peripheral blood of mice was evaluated, which reflected the effect of different combinations of drugs on host immunity in vivo.
smiles,measurement,setting,value
"CN(Cc1cnc2nc(N)nc(N)c2n1)c1ccc(C(=O)N[C@@H](CCC(=O)O)C(=O)O)cc1 [MTX, methotrexate]",tumor volume compared with control G1 and G2,[1],not significantly different
same,protective effect on heterologous LUCAR-20SD cells,LUCAR-20SD cells,good protective effect on heterologous LUCAR-20SD cells
same,"inhibitory effect of MTX on the host immune cells, dose relation",[2]; 15.15 mg/kg (G3) vs 75.45 mg/kg (G5),dose-dependent
same,inhibitory effect on proliferation of host cells,[2]; FC regimen or MTX alone,the inhibitory effect was limited
same,number of host cells in the peripheral blood compared with G1 blank group,"[2]; G2: FC, G3: 15.15 mg/kg MTX, G5: 75.45 mg/kg MTX",lower than that of the G1 blank group
